From patent US5792784A, “Coupling product obtained from histamine and an amino acid” (Babizhayev; Marc, priority 1993, dated 1998)

Columns and labels:
[1] = test system: cutaneous connective tissue; experiment: Repairing of the cutaneous connective tissue after incision in rat (histology); format: in vivo, Wistar rats
Procedure: This experiment has been carried out on a batch of 12 Wistar rats. An incision of a length of 12 mm involving in depth epiderm and derm as a whole was performed. At the end of the healing, the rats are then treated by topical applications of β-alanyl-histadine for three weeks. At the same time, a reference batch of 12 rats have been treated with placebo for the same lasting time of experiment.

[2] = Inhibition of phosphatidylcholine liposome peroxidation (Fe/ascorbic acid; TBA/MDA); conditions: 10 mM; control 4.4
From the text: oxidation substrate: phosphatidylcholine liposomes
free radicals generating system : Fe/ascorbic acid detection: thiobarbituric acid (TBA)/malondialdehyde (MDA)

[3] = "Peroxidase" activity: reduction of 13-monoperoxide of linoleic acid (L-OOH); format: biochemical; conditions: for "peroxidase" activity: 13-monoperoxide linoleic acid 0.5 mM, control 36.7
Procedure: Lipid peroxides evolution is monitored with the help of 3 methods:
1°) spectrophotometric measure at 233 nm
(O. S. Privett, C. Nickell, W. O. Lundberg, and P. D. Bayer, dans J.Am.Oil Chem. Soc, Vol 32 (1955), P.505-511
2°) Iodometric dosage: M.Hicks' and J. M. Gebicki's method, Analytical Biochemistry, vol 99 (1979), p 249-253.
3°) Chromatography on silica gel plate (hexane/ether/acetic acid 8/7/0.1).
(a) 13-monoperoxide linoleic acid 0.5 mM without reducing agent (preparation according to H. W. Gardner's method Lipids, Vol.10 (1975), p. 248-252).

[4] = "Peroxidase" type activity on liposome model: reduction of phosphatidylcholine hydroperoxides (PC-OOH); format: biochemical
Procedure: The "peroxidase" type activity also has been evaluated on a "liposome" model. The phosphatidylcholine hydroperoxides (PC-OOH) are prepared according to a similar procedure to the one already described for the linoleic acid monoperoxide.
The peroxide species reduction is followed by dosing the remaining peroxides according to the method laid down by Hicks M and Gebicki J. M.--Anal. Biochem, vol 99, (1979), p. 249-253.

cataract = experiment: Cataract patients: modification of the visual acuity at the end of 24 months; format: in vivo; conditions: 24 months
From the text: This example concerns the utilization of the β-alanyl-histamine to treat patients affected by cataract.
The study has been designed for a prospective evaluation of the modifications of the lens opacity in patients effected by cataract. All the patients have undergone an initial ophtalmic examination. It involved the making of the medical historical record of the patient, a measurement of the visual acuity at a maximum correction, direct or indirect ophtalmoscopies, an evaluation of the opacities with the slit lamp, a clinical grading of the lens after maximal mydriasis, a classification according to the cataract type, and lens pictures by retroillumination. Moreover, samples of blood have been taken at the beginning, then in follow-up for chemical analysis.
The general view has allowed to establish the initial state of patients before the treatment (definition of "base line").
Follow-up of ophtalmic examinations were carried out every two weeks for two months, then every month. They included maximum visual acuity after correction, direct or indirect ophtalmoscopies, a slit lamp examination, and after a maximum dilation of the pupil (excluding patients with primary open-angle glaucoma), a clinical lens grading, a classification of the cataract. Pictures also have been taken on lens observed by retroillumination or with the slit lamp.
In this study, differents groups have been determined, to be seen:
A group reference 1, with non-treated patients (5 patients, 7 eyes) […]
A group 3, has been submitted to the same treatment than the group 2, stimulated by an "attack type of treatment" during the first two weeks: 2 subcon-junctival junctival injections twice a week of 0.10 to 0.15 ml of the saline defined for the group 2 (3 patients, 4 eyes).
A group 4, which was given a local dose by way of an eye drop of isotonic saline twice a day (5 patients 7 eyes), the group 4 being like the group 1, a reference group.
Following the protocol described above, we determine the values of the optic density of the lens according to its opacity as well as the visual acuity, and the whole for 24 months. Considering these two parameters, we obtain tables giving results concerning the modification of the visual acuity at the end of 24 months in Tables 1 and 2, and the results concerning the modification of the visual opacity at the end of 24 months in Tables 3 and 4.

murine splenocytes = experiment: Immunostimulating activity in vitro on murine splenocytes (tritiated thymidine incorporation); format: cell-based
From the text: The procedure is extracted from: J. Kunert-Radek, H. Stepien, K. Lyson and M. Pawlikowski--"Effects of calcium channel modulators on the proliferation of mouse spleen lymphocytes in vitro"--Agents and Actions, vol. 29, Nos 3-4 (1990), p. 254-258.
The cell proliferation is followed by the measurement of the extent of incorporation of tritriated thymidine in the cells, expressed in numbers of desintegrations per mn, deducted from the background.
The results obtained with an immunostimulator of reference, concanavaline A, are given as a comparison.
The immunostimulating effect is expressed by an Index of Stimulation (IS) [formula]
The given values are corresponding to the average of three measures.

[5] = Inhibition of linoleic acid peroxidation (Fe/ascorbic acid; TBA/MDA); format: biochemical; conditions: 25 mM (mixture: 25 mM each), linoleic acid 0.25 mg/ml
Procedure: oxidation substrate: linoleic acid (0.25 mg/ml), free radicals generating system: Fe/ascorbic acid detection: thiobarbituric acid (TBA)/malondialdehyde (MDA)

[6] = Tests with peroxidized compounds: reducing behaviour; format: biochemical
[7] = groups 2 and 3, start acuity 20/30
[8] = groups 2 and 3, start acuity 20/40
[9] = groups 2 and 3, start acuity 20/50
[10] = groups 2 and 3, start acuity 20/70
[11] = groups 2 and 3, start acuity 20/100
[12] = groups 2 and 3, total of 19 eyes

"peroxidase" activity ([3]; 10 mM): 138.1 mol of L-OOH reduced/hour
"peroxidase" activity ([3]; 20 mM): 187.5 mol of L-OOH reduced/hour
"peroxidase" activity with the adding of EDTA ([3]; EDTA 0.5 mM): completely inhibited
SMILES: NCCC(=O)NCCc1c[nH]cn1 [β-alanyl-histamine]
density and aspect of the constituents of the connective tissue ([1]; capillary layer versus deep layer): obviously the same in the capillary layer and in the deep layer
thin elastic or reticulin fibres ([1]; dermic superficial layers): generally more numerous in the dermic superficial layers
fundamental substance ([1]; toluidine blue colouring): more abundant than normal
horny-layers ([1]; topical, after 3 weeks): identical to the ones of the surrounding normal epiderm
restoration of epiderm ([1]; topical, after 3 weeks): The epiderm is well restored
visibility of scar ([1]; topical, after 3 weeks): the scar is slightly or even not visible on the skin surface
MDA per mg of phospholipids [2]: 2.5 mol MDA per mg of phospholipid
number of moles of PC-OOH reduced/initial number of moles of PC/hour ([4]; 10 mM): 0.77 × 10^-3 moles of PC-OOH reduced/initia
number of moles of PC-OOH reduced/initial number of moles of PC/hour ([4]; 25 mM): 1.56 × 10^-3 moles of PC-OOH reduced/initia
improvement of the visual acuity + (number of eyes) (cataract; groups 2 and 3, start acuity 20/25): 1 eyes
improvement of the visual acuity + (number of eyes) (cataract; [7]): 1 eyes
improvement of the visual acuity ++ (number of eyes) (cataract; [7]): 4 eyes
improvement of the visual acuity + (number of eyes) (cataract; [8]): 1 eyes
improvement of the visual acuity ++ (number of eyes) (cataract; [8]): 3 eyes
improvement of the visual acuity + (number of eyes) (cataract; [9]): 1 eyes
improvement of the visual acuity ++ (number of eyes) (cataract; [9]): 1 eyes
improvement of the visual acuity + (number of eyes) (cataract; [10]): 1 eyes
improvement of the visual acuity ++ (number of eyes) (cataract; [10]): 1 eyes
improvement of the visual acuity ++ (number of eyes) (cataract; [11]): 1 eyes
improvement of the visual acuity +++ (number of eyes) (cataract; [11]): 2 eyes
regression of the visual acuity ++ (number of eyes) (cataract; [11]): 1 eyes
improvement of the visual acuity ++ (number of eyes) (cataract; groups 2 and 3, start acuity 20/200): 1 eyes
improvement of the visual acuity + (number of eyes) (cataract; [12]): 5 eyes
improvement of the visual acuity ++ (number of eyes) (cataract; [12]): 11 eyes
improvement of the visual acuity +++ (number of eyes) (cataract; [12]): 2 eyes
regression of the visual acuity + (number of eyes) (cataract; [12]): 0 eyes
regression of the visual acuity ++ (number of eyes) (cataract; [12]): 1 eyes
regression of the visual acuity +++ (number of eyes) (cataract; [12]): 0 eyes
improvement of the vision and regression of cataract (cataract; two parameters: visual acuity and opacity): very significant in the improvement of the vision and the regression of cataract
concentration of maximum immunostimulating effect (murine splenocytes): 25 µg/mL
immunostimulating activity versus reference mitogen (murine splenocytes): comparable with a reference mitogen, concanavaline A
fold induction at 2.5 µg/mL (murine splenocytes; Mus musculus, Splenocyte, 2.5 μg/ml, average of three measures, read-out: Index of Stimulation (IS)): 4.8
fold induction at 5 µg/mL (murine splenocytes; Mus musculus, Splenocyte, 5 μg/ml, average of three measures, read-out: Index of Stimulation (IS)): 15.7
fold induction at 10 µg/mL (murine splenocytes; Mus musculus, Splenocyte, 10 μg/ml, average of three measures, read-out: Index of Stimulation (IS)): 16.9
fold induction at 25 µg/mL (murine splenocytes; Mus musculus, Splenocyte, 25 μg/ml, average of three measures, read-out: Index of Stimulation (IS)): 18.6
fold induction at 50 µg/mL (murine splenocytes; Mus musculus, Splenocyte, 50 μg/ml, average of three measures, read-out: Index of Stimulation (IS)): 12.8
% inhibition [5]: 47%
MDA per mg of linoleic acid ([5]; control 7.95): 4.25 mol MDA per mg of linoleic aci
reducing behaviour towards peroxidized compounds [6]: behaves in a way comparable to β-alanyl-histidine or carnosine
